From US20120264735A1 (priority 2009, published 2012) come the findings set out here.

Bounds are passed on as bounds.

For this test, the target named is T1, c-Met kinase (recombinant c-Met) (Homo sapiens, UniProt P08581).
T1 construct: 0.27 nM recombinant c-Met
T1 sequence (P08581 25-1390): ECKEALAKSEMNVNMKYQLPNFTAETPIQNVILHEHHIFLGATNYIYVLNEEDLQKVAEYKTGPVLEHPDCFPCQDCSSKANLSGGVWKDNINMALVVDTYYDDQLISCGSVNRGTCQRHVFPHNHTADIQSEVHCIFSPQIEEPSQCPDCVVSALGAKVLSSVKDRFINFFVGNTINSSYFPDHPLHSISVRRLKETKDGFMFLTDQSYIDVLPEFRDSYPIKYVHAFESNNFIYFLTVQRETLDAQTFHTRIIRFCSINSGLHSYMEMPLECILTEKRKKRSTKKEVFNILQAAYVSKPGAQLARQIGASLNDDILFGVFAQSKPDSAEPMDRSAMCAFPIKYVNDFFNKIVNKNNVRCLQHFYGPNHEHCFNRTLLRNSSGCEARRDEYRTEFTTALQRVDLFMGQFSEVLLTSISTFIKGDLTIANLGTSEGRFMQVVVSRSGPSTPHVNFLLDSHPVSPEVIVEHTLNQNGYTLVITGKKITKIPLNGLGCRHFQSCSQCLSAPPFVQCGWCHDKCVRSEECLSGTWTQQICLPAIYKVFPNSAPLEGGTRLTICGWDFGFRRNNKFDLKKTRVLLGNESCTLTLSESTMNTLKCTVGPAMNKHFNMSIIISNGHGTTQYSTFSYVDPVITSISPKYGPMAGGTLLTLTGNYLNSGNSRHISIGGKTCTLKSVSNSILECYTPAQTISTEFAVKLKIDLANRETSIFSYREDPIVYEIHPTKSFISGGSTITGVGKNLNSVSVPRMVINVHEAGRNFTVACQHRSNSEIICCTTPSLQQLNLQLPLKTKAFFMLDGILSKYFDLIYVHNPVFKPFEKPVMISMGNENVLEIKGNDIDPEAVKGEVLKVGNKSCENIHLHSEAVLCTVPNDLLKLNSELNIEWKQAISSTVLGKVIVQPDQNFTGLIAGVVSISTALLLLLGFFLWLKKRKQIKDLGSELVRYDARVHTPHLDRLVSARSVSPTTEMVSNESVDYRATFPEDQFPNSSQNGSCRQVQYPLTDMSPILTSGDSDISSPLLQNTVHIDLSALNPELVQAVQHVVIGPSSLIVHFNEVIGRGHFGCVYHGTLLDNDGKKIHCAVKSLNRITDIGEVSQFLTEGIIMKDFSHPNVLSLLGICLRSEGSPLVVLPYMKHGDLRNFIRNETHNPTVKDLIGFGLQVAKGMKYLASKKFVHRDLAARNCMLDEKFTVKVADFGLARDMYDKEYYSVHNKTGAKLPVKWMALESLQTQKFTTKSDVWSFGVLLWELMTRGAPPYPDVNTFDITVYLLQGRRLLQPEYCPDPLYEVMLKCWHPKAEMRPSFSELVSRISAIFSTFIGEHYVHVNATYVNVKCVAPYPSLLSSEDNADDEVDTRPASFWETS
Kind of test: In vitro kinase assay I (homogeneous time-resolved fluorescence tyrosine kinase assay). It counts as biochemical. Here is the method: The kinase activities of c-Met are measured using a modified version of the homogeneous-time-resolved tyrosine kinase assay described by Park et al. (1999, Anal. Biochem. 269:94-104).
The procedure for determining the potency of a compound to inhibit c-Met kinase comprises the following steps: • 1. Prepare 3-fold serial diluted compound solutions in 100% dimethyl sulfoxide (DMSO) at 20× of the desired final concentrations in a 384-well plate. • 2. Prepare a master reaction mix containing 6.67 mM MgCl2, 133.3 mM NaCl, 66.7 mM Tris-HCl (pH 7.4), 0.13 mg/ml BSA, 2.67 mM dithiothreitol, 0.27 nM recombinant c-Met and 666.7 nM biotinylated synthetic peptide substrate (biotin-ahx-EQEDEPEGDYFEWLE-CONH2) (SEQ.ID.NO.:1). • 3. In a black assay plate, add 1.5 μl of compound solution (or DMSO) and 22.5 μl of master reaction mix per well. Initiate the kinase reaction by adding 6 μl of 0.25 mM MgATP per well. Allow the reactions to proceed for 60 min at room temperature. The final conditions for the reaction are 0.2 nM c-Met, 0.5 μM substrate, 50 μM MgATP, 5 mM MgCl2, 100 mM NaCl, 2 mM DTT, 0.1 mg/ml BSA, 50 mM Tris (pH 7.4) and 5% DMSO. • 4. Stop the kinase reaction with 30 μl of Stop/Detection buffer containing 10 mM EDTA, 25 mM HEPES, 0.1% TRITON X-100, 0.750 nM Eu-chelate labeled anti-phosphotyrosine antibody PY20 (cat. #AD0067, PerkinElmer) and 50 μg/ml Streptavidin-allophycocyanin conjugate (cat. #PJ25S, Prozyme). • 5. Read HTRF signals on a Victor reader (PerkinElmer) in HTRF mode after 60-min incubation at room temperature in the dark. • 6. IC50 is determined by fitting the observed relationship between compound concentration and HTRF signal with a 4-parameter logistic equation. II. GTL-16 pY1349 Cell-Based Assay
For `Cn1cc(-n2ccc(=O)c(Cc3cccc(-c4ncc(OCC(O)CN5CCOCC5)cn4)c3)n2)cn1` (racemic) [Example 368, rac-3-{3-[5-(2-hydroxy-3-morpholin-4-ylpropoxy)pyrimidin-2-yl]benzyl}-1-(1-methyl-1H-pyrazol-4-yl)pyridazin-4(1H)-one], the IC50 was under 100 nM.

On to `Cn1cc(-n2ccc(=O)c(Cc3cccc(NC(=O)OCC4CCCO4)c3)n2)cn1` (racemic) [Example 562, rac-tetrahydrofuran-2-ylmethyl (3-{[1-(1-methyl-1H-pyrazol-4-yl)-4-oxo-1,4-dihydropyridazin-3-yl]methyl}phenyl)carbamate], for which the IC50 is under 100 nM.

With `Cn1cc(-n2ccc(=O)c(Cc3cccc(-c4ncc(-c5cncnc5)cn4)c3)n2)cn1` [Example 411, 3-[3-(5,5′-bipyrimidin-2-yl)benzyl]-1-(1-methyl-1H-pyrazol-4-yl)pyridazin-4(1H)-one], the IC50 is under 100 nM.

`CCn1cnc(-c2cccc(Cc3nn(-c4cccc(C#N)c4)ccc3=O)c2)n1` [Example 84, 3-{3-[3-(1-Ethyl-1H-1,2,4-triazol-3-yl)benzyl]-4-oxopyridazin-1(4H)-yl}benzonitrile]: the IC50 was under 100 nM.

On to `CCC(COC(=O)Nc1cccc(Cc2nn(-c3cccc(C#N)c3)ccc2=O)c1)OC` (racemic) [Example 581, rac-2-methoxybutyl (3-{[1-(3-cyanophenyl)-4-oxo-1,4-dihydropyridazin-3-yl]methyl}phenyl)carbamate], for which the concentration for half-maximal inhibition (IC50) was under 100 nM.

Consider `CCCCn1cnc(-c2cccc(Cc3nn(-c4cnn(C)c4)ccc3=O)c2)n1` [Example 76, 3-[3-(1-butyl-1H-1,2,4-triazol-3-yl)benzyl]-1-(1-methyl-1H-pyrazol-4-yl)pyridazin-4(1H)-one], for which the IC50 is under 100 nM.

Regarding `CCOc1cnc(-c2cccc(C(OC)c3nn(-c4cnn(C)c4)ccc3=O)c2)nc1` (racemic) [Example 659, rac-3-[[3-(5-Ethoxypyrimidin-2-yl)phenyl](methoxy)methyl]-1-(1-methyl-1H-pyrazol-4-yl)pyridazin-4(1H)-one], the IC50 is 100 to 1000 nM.

Regarding `O=C(Nc1cccc(Cc2nn(-c3cc(F)c(F)c(F)c3)ccc2=O)c1)OCCCN1CCCC1=O` [Example 551, 3-(2-oxopyrrolidin-1-yl)propyl (3-{[4-oxo-1-(3,4,5-trifluorophenyl)-1,4-dihydropyridazin-3-yl]methyl}phenyl)carbamate], the half-maximal inhibitory concentration (IC50) was under 100 nM.

On to `CC(c1cccc(-c2ncc(-c3cnn(C)c3)cn2)c1)c1nn(-c2ccc(F)c(F)c2)ccc1=O` (single isomer, unassigned) [Example 238, 1-(3,4-difluorophenyl)-3-[(1S or R)-1-{3-[5-(1-methyl-1H-pyrazol-4-yl)pyrimidin-2-yl]phenyl}ethyl]pyridazin-4(1H)-one], for which the IC50 was in the range of 100 to 1000 nM.

Regarding `CN1CCC(COc2cnc(-c3cccc(Cc4nn(-c5cc(F)cc(F)c5)ccc4=O)c3)nc2)CC1` [Example 173, 1-(3,5-difluorophenyl)-3-(3-{5-[(1-methylpiperidin-4-yl)methoxy]pyrimidin-2-yl}benzyl)pyridazin-4(1H)-one], the IC50 is under 100 nM.

For the compound `CN1CCC(COc2cnc(-c3cccc(Cc4nn(-c5cc(F)cc(C#N)c5)ccc4=O)c3)nc2)CC1` [Example 170, 3-fluoro-5-[3-(3-{5-[(1-methylpiperidin-4-yl)methoxy]pyrimidin-2-yl}benzyl)-4-oxopyridazin-1(4H)-yl]benzonitrile], the IC50 is under 100 nM.

`CCCn1cnc(-c2cccc(Cc3nn(-c4cc(F)cc(C#N)c4)ccc3=O)c2)n1` [Example 81, 3-fluoro-5-{4-oxo-3-[3-(1-propyl-1H-1,2,4-triazol-3-yl)benzyl]pyridazin-1(4H)-yl}benzonitrile]: the IC50 is under 100 nM.

In the case of `Cn1cc(-n2ccc(=O)c(Cc3cccc(-c4ncc(CNC5CCCCC5)cn4)c3)n2)cn1` [Example 432, 3-(3-{5-[(cyclohexyl-amino)methyl]pyrimidin-2-yl}benzyl)-1-(1-methyl-1H-pyrazol-4-yl)pyridazin-4(1H)-one], the IC50 was 100 to 1000 nM.

`CCCN(C)c1cnc(-c2cccc(Cc3nn(-c4cnn(C)c4)ccc3=O)c2)nc1` [Example 456, 3-(3-{5-[Methyl(propyl)amino]pyrimidin-2-yl}benzyl)-1-(1-methyl-1H-pyrazol-4-yl)pyridazin-4(1H)-one]: the IC50 is under 100 nM.

For `CCOc1cnc(-c2cccc(C(O)c3nn(-c4cnn(C)c4)ccc3=O)c2)nc1` (racemic) [Example 654, rac-3-[[3-(5-Ethoxypyrimidin-2-yl)phenyl](hydroxy)methyl]-1-(1-methyl-1H-pyrazol-4-yl)pyridazin-4(1H)-one], the concentration for half-maximal inhibition (IC50) is 100 to 1000 nM.

`COCCOC(=O)Nc1cccc(Cc2nn(-c3cc(F)c(F)c(F)c3)ccc2=O)c1` [Example 503, 2-methoxyethyl (3-{[4-oxo-1-(3,4,5-trifluorophenyl)-1,4-dihydropyridazin-3-yl]methyl}phenyl)carbamate]: the IC50 was under 100 nM.

As to `COC(C)c1cnc(-c2cccc(Cc3nn(-c4cnn(C)c4)ccc3=O)c2)nc1` (racemic) [Example 166, rac-3-{3-[5-(1-methoxyethyl)pyrimidin-2-yl]benzyl}-1-(1-methyl-1H-pyrazol-4-yl)pyridazin-4(1H)-one], the 50% inhibitory concentration (IC50) was 100 to 1000 nM.

Consider `CCn1cc(-n2ccc(=O)c(C(C)c3cccc(-c4ncc(OC5CN(C(=O)OC(C)(C)C)C5)cn4)c3)n2)cn1` (single isomer, unassigned) [Example 292, tert-butyl 3-{[2-(3-{(1R or S)-1-[1-(1-ethyl-1H-pyrazol-4-yl)-4-oxo-1,4-dihydropyridazin-3-yl]ethyl}phenyl)pyrimidin-5-yl]oxy}azetidine-1-carboxylate], for which the IC50 is under 100 nM.

On to `CCOC(=O)Nc1cccc(Cc2nn(-c3cccc(Br)c3)ccc2=O)c1` [Example 13, ethyl (3-{[1-(3-bromophenyl)-4-oxo-1,4-dihydropyridazin-3-yl]methyl}phenyl)carbamate], for which the IC50 was under 100 nM.

Consider `Cn1cc(-n2ccc(=O)c(Cc3cccc(NC(=O)OCCC(C)(C)O)c3)n2)cn1` [Example 526, 3-hydroxy-3-methylbutyl (3-{[1-(1-methyl-1H-pyrazol-4-yl)-4-oxo-1,4-dihydropyridazin-3-yl]methyl}phenyl)carbamate], for which the IC50 is under 100 nM.

`Cn1cc(-n2ccc(=O)c(Cc3cccc(-c4ncc(OCc5noc(C6CC6)n5)cn4)c3)n2)cn1` [Example 282, 3-(3-{5-[(5-cyclopropyl-1,2,4-oxadiazol-3-yl)methoxy]pyrimidin-2-yl}benzyl)-1-(1-methyl-1H-pyrazol-4-yl)pyridazin-4(1H)-one]: the IC50 was under 100 nM.

Regarding `O=C(Nc1cccc(Cc2nn(-c3cc(F)c(F)c(F)c3)ccc2=O)c1)OCC1CCOCC1` [Example 558, tetrahydro-2H-pyran-4-ylmethyl (3-{[4-oxo-1-(3,4,5-trifluorophenyl)-1,4-dihydropyridazin-3-yl]methyl}phenyl)carbamate], the IC50 was under 100 nM.

Consider `COC(C)(C)c1cnc(-c2cccc(Cc3nn(-c4cnn(C)c4)ccc3=O)c2)nc1` [Example 168, 3-{3-[5-(1-methoxy-1-methylethyl)pyrimidin-2-yl]benzyl}-1-(1-methyl-1H-pyrazol-4-yl)pyridazin-4(1H)-one], for which the IC50 was 100 to 1000 nM.

Turning to `COc1cnc(-c2cccc(Cc3nn(-c4cncc(C)c4)ccc3=O)c2)nc1` [Example 37, 3-[3-(5-methoxypyrimidin-2-yl)benzyl]-1-(5-methylpyridin-3-yl)pyridazin-4(1H)-one], the half-maximal inhibitory concentration (IC50) is under 100 nM.

For `Cn1cc(-n2ccc(=O)c(Cc3cccc(-c4ncc(OCC(O)CF)cn4)c3)n2)cn1` (racemic) [Example 369, rac-3-{3-[5-(3-fluoro-2-hydroxypropoxy)pyrimidin-2-yl]benzyl}-1-(1-methyl-1H-pyrazol-4-yl)pyridazin-4(1H)-one], the IC50 was under 100 nM.

On to `CCn1cc(-n2ccc(=O)c(Cc3cccc(-c4ncc(OCC(F)F)cn4)c3)n2)cn1` [Example 306, 3-{3-[5-(2,2-difluoroethoxy)pyrimidin-2-yl]benzyl}-1-(1-ethyl-1H-pyrazol-4-yl)pyridazin-4(1H)-one], for which the IC50 is under 100 nM.

For the compound `[2H]C([2H])([2H])n1cc(-n2ccc(=O)c(C(F)c3cccc(-c4ncc(OC([2H])([2H])C([2H])([2H])[2H])cn4)c3)n2)cn1` (racemic) [Example 658, rac-3-[[3-(5-Ethoxypyrimidin-2-yl)phenyl](fluoro)methyl]-1-(1-methyl-1H-pyrazol-4-yl)pyridazin-4(1H)-one-d8], the IC50 was under 100 nM.

As to `CC(C)COC(=O)Nc1cccc(Cc2nn(-c3ccc(-c4cn[nH]c4)cc3)ccc2=O)c1` [Example 731, 2-methylpropyl [3-({4-oxo-1-[4-(1H-pyrazol-4-yl)phenyl]-1,4-dihydropyridazin-3-yl}methyl)phenyl] carbamate], the IC50 is under 100 nM.

By IC50 is commonly meant the midpoint of a concentration-inhibition curve.
